These results are taken from US20220323455A1, “FUSED HETEROCYCLIC DERIVATIVES AS ANTIVIRAL AGENTS” (priority 2019, published 2022).

The subject of series [1] is HBV. Nature of the series: HBV replication inhibition assay (BDNA assay) in HepG2.2.15 cells. The format is cell-based, Hepatitis B virus. To be noted: 6 days, encapsidated HBV DNA in supernatant. Put shortly: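 HepG2.2.15 cells were dosed with serially diluted compound (0.5% DMSO), with compound and medium renewed at day 3. Day-6 supernatants were DNase-treated and proteinase K-lysed, and encapsidated HBV DNA was quantified by branched-DNA assay. Percent inhibition was set against DMSO controls and EC50 obtained by nonlinear fit.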

The nature of series [2]: Cytotoxicity in HepG2.117 cells (ATPlite Luminescence Assay). It is filed as cell-based. To be noted: human, incubated for 3 days, cell viability, mean value, read-out: TOX-HepG2.117 CC50 (μM, mean value). As for the experimental part:
Cytotoxicity of the compounds was tested using HepG2 or HepG2.117 cells, incubated for 3 days in the presence of compounds. The viability of the cells was assessed using the PERKIN ELMER ATPlite Luminescence Assay System.”
Background: Cellular ATP, detected with luciferase, serves as a proxy for viable cell number.

Series [3] has as its system HBV. Put plainly: Anti-HBV activity in HepG2.117 cell line (intracellular HBV DNA, real-time PCR). To be noted: Hepatitis B virus, 72 h; HepG2.117 cells, 3 days of treatment, intracellular HBV DNA, mean value; read-out: HBV-AVE-HepG2.117 EC50 (μM, mean value). It is filed as cell-based. How it is done: The anti HBV activity was measured using the HepG2.117 cell line, a stable, inducibly HBV producing cell line, which replicates HBV in the absence of doxicycline (Tet-off system). The HepG2 cell line is available from ATCC® under number HB-8065. Transfection of the HepG2 cell line can be as described in Sun and Nassal 2006 Journal of Hepatology 45 (2006) 636-645 “Stable HepG2- and Huh7-based human hepatoma cell lines for efficient regulated expression of infectious hepatitis B virus”.
For the antiviral assay, HBV replication was induced, followed by a treatment with serially diluted compound in 96-well plates. After 3 days of treatment, the antiviral activity was determined by quantification of intracellular HBV DNA using real-time PCR and an HBV specific primer set and probe.
In general terms: Real-time PCR tracks product formation cycle by cycle.

As for `C[C@@H]1Cc2nn3c(c2CN1C(=O)Nc1ccc(F)c(C#N)c1)C(F)(F)CC(O)(CF)CC3` (single isomer, unassigned) [Example 130, (3R,9S*)—N-(3-Cyano-4-fluorophenyl)-11,11-difluoro-9-(fluoromethyl)-9-hydroxy-3-methyl-3,4,8,9,10,11-hexahydro-1H-pyrido[4′,3′:3,4]pyrazolo[1,5-a]azepine-2(7H)-carboxamide], the EC50 in the series on HBV [1] was found to be 2 nM. Same read-out and setting: the same measure for `N#Cc1cc(NC(=O)N2CCc3nn4c(c3C2)C(F)(F)CC(CO)CC4)ccc1F` (single isomer, unassigned) [Example 134, (S*)—N-(3-Cyano-4-fluorophenyl)-11,11-difluoro-9-(hydroxymethyl) -3,4,8,9,10,11-hexahydro-1H-pyrido[4′,3′:3,4]pyrazolo[1,5-a]azepine-2(7H)-carboxamide]: 17 nM; for `N#Cc1cc(NC(=O)N2CCc3nn4c(c3C2)C(F)(F)CC(CO)CC4)ccc1F` (single isomer, unassigned) [Example 136, (R*)—N-(3-Cyano-4-fluorophenyl)-11,11-difluoro-9-(hydroxymethyl) -3,4,8,9,10,11-hexahydro-1H-pyrido[4′,3′:3,4]pyrazolo[1,5-a]azepine-2(7H)-carboxamide]: 5 nM; for `O=C(Nc1ccnc(Br)c1F)N1CCc2nn3c(c2C1)C(F)(F)CC(O)CC3` (single isomer, unassigned) [Example 137, (R*)—N-(2-Bromo-3-fluoropyridin-4-yl)-11,11-difluoro-9-hydroxy-3,4,8,9,10,11-hexahydro-1H-pyrido[4′,3′:3,4]pyrazolo[1,5-a]azepine-2(7H)-carboxamide]: 2 nM. Still for that read-out and setting: the same measure for `N#Cc1cc(NC(=O)N2CCc3nn4c(c3C2)C(F)(F)CC(O)CC4)ccc1F` (single isomer, unassigned) [Example 138, (R*)—N-(3-Cyano-4-fluorophenyl)-11,11-difluoro-9-hydroxy-3,4,8,9,10,11-hexahydro-1H-pyrido[4′,3′:3,4]pyrazolo[1,5-a]azepine-2(7H)-carboxamide]: 1 nM; for `O=C(Nc1ccnc(C(F)F)c1F)N1CCc2nn3c(c2C1)C(F)(F)CC(O)CC3` (single isomer, unassigned) [Example 139, (R*)—N-(2-(Difluoromethyl)-3-fluoropyridin-4-yl)-11,11-difluoro-9-hydroxy-3,4,8,9,10,11-hexahydro-1H-pyrido[4′,3′:3,4]pyrazolo[1,5-a]azepine-2(7H)-carboxamide]: 21 nM; for `O=C(Nc1ccnc(Br)c1F)N1CCc2nn3c(c2C1)C(F)(F)CC(O)CC3` (single isomer, unassigned) [Example 140, (S*)—N-(2-Bromo-3-fluoropyridin-4-yl)-11,11-difluoro-9-hydroxy-3,4,8,9,10,11-hexahydro-1H-pyrido[4′,3′:3,4]pyrazolo[1,5-a]azepine-2(7H)-carboxamide]: 27 nM. Still for that read-out and setting: the same measure for `N#Cc1cc(NC(=O)N2CCc3nn4c(c3C2)C(F)(F)CC(O)CC4)ccc1F` (single isomer, unassigned) [Example 141, (S*)—N-(3-Cyano-4-fluorophenyl)-11,11-difluoro-9-hydroxy-3,4,8,9,10,11-hexahydro-1H-pyrido[4′,3′:3,4]pyrazolo[1,5-a]azepine-2(7H)-carboxamide]: 16 nM. As for `O=C(Nc1ccnc(C(F)F)c1F)N1CCc2nn3c(c2C1)C(F)(F)CC(O)CC3` (single isomer, unassigned) [Example 142, (S*)—N-(2-(Difluoromethyl)-3-fluoropyridin-4-yl)-11,11-difluoro-9-hydroxy-3,4,8,9,10,11-hexahydro-1H-pyrido[4′,3′:3,4]pyrazolo[1,5-a]azepine-2(7H)-carboxamide], the EC50 in the series on HBV [1] was determined as 46 nM. `C[C@@H]1Cc2nn3c(c2CN1C(=O)c1ccc(Cl)c(Cl)c1)C(F)(F)CC[C@@H](O)C3` (single isomer, unassigned) [Example C8, (3,4-Dichlorophenyl)[(3R,8*R)-11,11-difluoro-8-hydroxy-3-methyl-1,3,4,7,8,9,10,11-octahydro-2H-pyrido[4′,3′:3,4]pyrazolo[1,5-a]azepin-2-yl]methanone]: the CC50 at 3 days in series [2] is above 50 µM. In addition, in the series on HBV [3], the EC50 stood at 0.019 µM. As to `C[C@@H]1Cc2nn3c(c2CN1C(=O)c1ccc(Cl)c(Cl)c1)C(F)(F)CC[C@H](O)C3` (single isomer, unassigned) [Example C9, (3,4-Dichlorophenyl)[(3R,8*S)-11,11-difluoro-8-hydroxy-3-methyl-1,3,4,7,8,9,10,11-octahydro-2H-pyrido[4′,3′:3,4]pyrazolo[1,5-a]azepin-2-yl]methanone], in series [2], the CC50 at 3 days is above 50 µM. Besides, in the series on HBV [3], the EC50 was found to be 0.018 µM.

As to `C#C[C@]1(O)CCC(F)(F)c2c3c(nn2C1)C[C@@H](C)N(C(=O)c1ccc(Cl)c(Cl)c1)C3` (single isomer, unassigned) [Example C10, (3,4-Dichlorophenyl)[(3R,8*R)-8-ethynyl-11,11-difluoro-8-hydroxy-3-methyl-1,3,4,7,8,9,10,11-octahydro-2H-pyrido[4′,3′:3,4]pyrazolo[1,5-a]azepin-2-yl]methanone], in series [2], the CC50 at 3 days came out at 36.9 µM. Further, the EC50 with HBV [3] was 0.078 µM. `C#C[C@@]1(O)CCC(F)(F)c2c3c(nn2C1)C[C@@H](C)N(C(=O)c1ccc(Cl)c(Cl)c1)C3` (single isomer, unassigned) [Example C11, (3,4-Dichlorophenyl)[(3R,8*S)-8-ethynyl-11,11-difluoro-8-hydroxy-3-methyl-1,3,4,7,8,9,10,11-octahydro-2H-pyrido[4′,3′:3,4]pyrazolo[1,5-a]azepin-2-yl]methanone]: in series [2], the CC50 at 3 days was 33.8 µM. For the same compound, the EC50 in the series with HBV [3] came out at 0.257 µM. Regarding `C[C@@H]1Cc2nn3c(c2CN1C(=O)c1ccc(Cl)c(Cl)c1)C(F)(F)CC[C@@H](CO)C3` (single isomer, unassigned) [Example C12, (3,4-Dichlorophenyl)[(3R,8*R)-11,11-difluoro-8-(hydroxymethyl)-3-methyl-1,3,4,7,8,9,10,11-octahydro-2H-pyrido[4′,3′:3,4]pyrazolo[1,5-a]azepin-2-yl]methanone], the CC50 at 3 days in series [2] turned out to be 32.7 µM. In addition, the EC50 with HBV [3] was 0.048 µM. For the compound `C[C@@H]1Cc2nn3c(c2CN1C(=O)c1ccc(Cl)c(Cl)c1)C(F)(F)CC[C@H](CO)C3` (single isomer, unassigned) [Example C13, (3,4-Dichlorophenyl)[(3R,8*S)-11,11-difluoro-8-(hydroxymethyl)-3-methyl-1,3,4,7,8,9,10,11-octahydro-2H-pyrido[4′,3′:3,4]pyrazolo[1,5-a]azepin-2-yl]methanone], the cytotoxic concentration (CC50) at 3 days in series [2] worked out at 33.6 µM. For the same compound, the EC50 with HBV [3] is below 0.195 µM. Taken in the same sequence, the figures for `C[C@@H]1Cc2nn3c(c2CN1C(=O)c1ccc(Cl)c(Cl)c1)C(F)(F)CC[C@@H](C(C)(C)O)C3` (single isomer, unassigned) [Example C14, (3,4-Dichlorophenyl)[(3R,8*R)-11,11-difluoro-8-(2-hydroxypropan-2-yl)-3-methyl-1,3,4,7,8,9,10,11-octahydro-2H-pyrido[4′,3′:3,4]pyrazolo[1,5-a]azepin-2-yl]methanone] were 5.76 µM and below 0.195 µM. For the compound `CC1Cc2nn3c(c2CN1C(=O)Nc1ccc(F)c(C#N)c1)C(F)(F)C[C@H](CO)CC3` (stereo partly drawn) [Example 131], the EC50 in the series with HBV [1] (Hepatitis B virus, HepG2.2.15, 144 h) amounted to 3 nM.

By EC50 is commonly meant the midpoint of the concentration-response curve. In general, CC50 refers to the concentration giving 50% cytotoxicity.
